Laboratory results published in patent US11980598B2, “N-(2-(substituted-naphth-1-yl)ethyl) substituted amide compound, preparation and uses thereof” (BEIJING GREATWAY PHARMACEUTICAL TECHNOLOGY CO., LTD., priority 2017, dated 2024).
Read-outs that look alike come from different tables or passages of the source.

Columns and labels:
SD rats [1] = assay: Anxiety behavior model of repeatedly administrated rat: novelty-suppressed feeding test; format: in vivo; details: D12
Procedure: The requirements for test animals, drug formulation and administration were the same as those of the rat chronic mild stress model.
Instruments: Vogel drinking anxiety device for rat and O-maze device for rat were manufactured by Shanghai XinRuan Company. The rat feeding chamber was a home-made white plastic box (60×45×25 cm).
The rats were administrated continuously by i.g. once a day. A novelty-suppressed feeding test, a Vogel drinking conflict test, and an O-maze test were performed on a different day, respectively. Each behavior test was performed at 9:00-12:00, and the administration time was 16:00-17:00. The test process was as follows: D12, novelty-suppressed feeding test (animals were fasted for 48 hours before the test); D18, Vogel drinking conflict test (animals were banned from water for 48 hours before the test); D21, O-maze test.
Common paddings with a thickness of 1.5 cm were placed at the floor of the rat feeding chamber, and six equal-sized food pellets were placed in the center. During the test, the rats were individually placed in a fixed position of the feeding chamber, and observed for 5 minutes. The time from rat entry to the start of biting or chewing the food was recorded with a stopwatch.

[2] = In vivo metabolism study, rat oral/tail vein injection model; details: for half-life: read-out: t½ (converted); for bioavailability: oral 5 mg/kg vs intravenous 0.5 mg/kg, dose conversion, read-out: F % (bioavailability)
Procedure: Male SD rats, weighing 200±20 g, SPF grade, were purchased from SPF Biotechnology Co., Ltd.
TSQ Quantum liquid chromatography-mass spectrometer (LC/MS/MS) from Finnigan Inc, USA, chromatography column: TSKgel Amide-80 column (2.0 mm I.D.×100 mm, 5 μm); mobile phase: acetonitrile-water-formic acid (50:50:0.1); flow rate: 0.2 mL/min; injection volume: 5 μL; column temperature: room temperature. Ionization source is electrospray ionization (ESI) with 4.8 KV of spray voltage; capillary temperature (TEM): 300° C.; sheath gas: N2, flow rate: 10 psi; auxiliary gas: N2, flow rate: 1 psi; collision gas (CID): Ar at a pressure of 1.5 mTorr. The mass spectrometry scanning method was selective reaction monitoring (SRM) and detected by positive ion method. The internal standard was a […] solution of aconitine in acetonitrile, the minimum limit of quantification was 5 ng/mL, and the correlation coefficient was >0.99.
Formulation of a solution for intravenous administration: approximately 5 mg of each test drug was accurately weighed, and dissolved in 50 μL of DMSO. To the solution was added an appropriate amount of 40% PEG400 aqueous solution to prepare a 0.5 mg/mL solution. The administration volume was 0.2 mL/200 g body weight, and the dose was 0.5 mg/kg body weight according to concentration conversion.
Formulation of a solution for i.g. administration: approximately 5 mg of each test drug was accurately weighed, and suspended and dispersed with a 1% aqueous solution of HPMC to prepare a 1 mg/mL suspension. The administration volume was 1 mL/200 g body weight, and the dose was 5 mg/kg body weight in terms of concentration according to concentration conversion.
Rats were randomly divided into 4 groups of 5 rats each. Oral gavage and tail vein administration were carried out according to the above dosages. At 2 min, 5 min, 15 min, 30 min, 1 h, 1.5 h, 2 h, and 3 h after administration, blood was collected from an orbit, and centrifuged at 8000 rpm for 10 min. 50 μL of plasma was weighed, and added with 50 μL of internal standard and 150 μL of acetonitrile. The mixture was mixed by shaking, and centrifuged at 18000 rpm for 10 min. The supernatant was taken for LC/MS/MS injection and determination. The determined data were analyzed using a DAS pharmacokinetic program to calculate the main pharmacokinetic parameters.

Kunming mice [3] = assay: Tail suspension test (TST) in mice; format: in vivo, mouse; details: 10 mg/kg intraperitoneal, 3 days, last 4 of 6 min
Procedure: (§1) Animals: Kunming mice, male, body weight 18-22 g, SPF grade; SD rats, male, body weight 150-180 g, SPF grade. The test was carried out after acclimatization, and the animal was fasted for 12 hours before the test.
(§2) All drugs for the test were suspended and dispersed in a 1% aqueous solution of hydroxypropyl methylcellulose (HPMC), and shaken well before use. […] The doses for administration were all 10 mg/kg. For the concentration and volume for administration, see J Psychiatry Neurosci 2004; 29(2):126-133. The mice were intraperitoneally administered in a volume of 0.5 mL/20 g; and the rats were administered by i.g. in a volume of 2 mL/100 g.
Mice were randomly divided into groups according to weight balance. Intraperitoneal injection was administered for three consecutive days, once a day, and the tail suspension test were performed 30 minutes after the third day. The tail suspension box was 25×25×35 cm, and a small clip was connected with a rope at the center of the top plate. An adhesive tape was stuck to the tail of the mouse 2 cm away from the tail end, and the adhesive tape was clamped with the clip to make the mouse in an inverted position. The duration of immobility was recorded during the last 4 minutes of total 6 minutes observed.

SD rats [4] = assay: Acute toxicity test of rat; format: in vivo; details: for Acute reaction after single administration / Adverse reactions during 14-day observation / Body weight compared with the blank group: rats, 2000 mg/kg i.g.
Procedure: Rats were administered by i.g. at a dose of 2000 mg/kg. The drugs were dispersed with a 1% aqueous solution of hydroxypropyl methylcellulose (HPMC).

Kunming mice [5] = assay: Forced mouse swimming test; format: in vivo; details: 10 mg/kg intraperitoneal, 3 days, last 4 of 6 min
Procedure: as §1, §2
Animal grouping and administration method were the same as those in the tail suspension test in mice. The mice were placed in a round glass vessel with a height of 20 cm, an inner diameter of 12 cm, a water depth of 10 cm and a water temperature of 25° C.

SD rats [6] = assay: Forced rat swimming test; format: in vivo; details: 10 mg/kg i.g., 3 days, last 5 of 6 min
Procedure: as §1, §2
Rats were randomly divided into groups according to weight balance. Rats were administered by i.g. for three consecutive days, once a day. One hour after administration on the third day, the forced swimming test was performed. The rats were placed in a round glass jar with a height of 40 cm, an inner diameter of 18 cm, a water depth of 23 cm, and a water temperature of 25° C. The rats were allowed to swim for 6 minutes, and the accumulated immobility time in the last 5 minutes was recorded.

Compound | Feeding latency (SD rats [1]; 10 mg/kg i.g. once a day) [s] | Feeding latency (SD rats [1]; 20 mg/kg i.g. once a day) [s] | Feeding latency (SD rats [1]; 40 mg/kg i.g. once a day) [s] | AUC(0-t) ([2]; oral 5 mg/kg) [ng·h/mL] | Immobility time (Kunming mice [3]) [s] | Acute reaction after single administration (SD rats [4]) | Adverse reactions during 14-day observation (SD rats [4]) | Body weight compared with the blank group (SD rats [4]) | Immobility time (Kunming mice [5]) [s] | Immobility time (SD rats [6]) [s] | further results
COc1ccc2cccc(CCNC(C)=O)c2c1 [Agomelatine, reference compound] | 208 ± 26 | 163 ± 25 | 124 ± 25 | 51.57 | 75.1 ± 21.4 | 8 rats were slow to move or became lethargic, and all returned to normal within 2 hours | no obvious adverse reactions within 14 days after the administration | no significant difference in body weight compared with the blank group | 113.5 ± 26.6 | 73.5 ± 38.5 | half-life ([2]; male, Sprague-Dawley (SD), plasma, intravenous injection 0.5 mg/kg): 20.4 min; AUC(0-t) ([2]; male, Sprague-Dawley (SD), plasma, iv, 0.5 mg/kg, intravenous injection 0.5 mg/kg, read-out: AUC(0-t)): 102 ng·h/mL; bioavailability ([2]; male, Sprague-Dawley (SD), plasma): 5.05%; half-life ([2]; male, Sprague-Dawley (SD), plasma, oral 5 mg/kg): 40.2 min; AUC(0-t) ([2]; male, Sprague-Dawley (SD), plasma, po, 5 mg/kg, oral 5 mg/kg, read-out: AUC(0-t)): 51.6 ng·h/mL
[2H]C([2H])([2H])Oc1cc2c(CCNC(C)=O)cccc2cc1Cl [Example 1, N-(2-(6-chloro-7-deuteromethoxy-naphthalen-1-yl)ethyl)acetamide] | 141 ± 17 | 124 ± 18 | 120 ± 14 | 248.83 | 55.7 ± 19.7 | the activity of the rats became slightly smaller but there were no obvious adverse reactions | no obvious adverse reactions within 14 days after the administration | no significant difference in body weight compared with the blank group | 73.0 ± 18.2 | 51.0 ± 32.4 | Feeding latency (SD rats [1]; 5 mg/kg i.g. once a day): 232 ± 23 s; half-life ([2]; male, SD, plasma, intravenous injection 0.5 mg/kg): 28.8 min; AUC(0-t) ([2]; male, SD, plasma, iv, 0.5 mg/kg, intravenous injection 0.5 mg/kg, read-out: AUC(0-t)): 48.9 ng·h/mL; bioavailability ([2]; male, SD, plasma): 50.9%; half-life ([2]; male, SD, plasma, oral 5 mg/kg): 29.4 min; AUC(0-t) ([2]; male, SD, plasma, po, 5 mg/kg, oral 5 mg/kg, read-out: AUC(0-t)): 249 ng·h/mL; Safety compared with control drug (SD rats [4]; rat model, overall): safer than the control drug Agomelatine
